Experimental data from PMC2346451 (PLoS ONE, 2008).

Test system: dorsal root ganglion neurons
Test: Whole-cell patch clamp of acutely isolated dorsal root ganglion neurons
Assay type: cell-based, rat
Excerpt: Dorsal root ganglion neurons from all spinal levels were removed from postnatal day 12 to 20 Sprague Dawley rats and the nerve roots trimmed. Calcium- and magnesium-free (CMF) Hank's solution contained (in mM): 136.9 sodium chloride, 5.4 potassium chloride, 0.34 dibasic sodium orthophosphate, 0.44 monopotassium phosphate, 5.6 glucose, 5 4-(2-hydroxyethyl)-1-piperazineethanesulfonic acid, 0.005% phenol red, pH 7.4. CMF Hank's was used throughout the isolation and enzymatic treatments. The isolated ganglia were treated for 20 minutes at 37°C with 20 U/ml of papain (Worthington Biochemical, Lakewood, NJ) and 5 mM cysteine. The ganglia were then transferred to CMF Hank's with 3 mg/ml collagenase (type I; Worthington) and 4 mg/ml dispase (neutral type II; Roche Applied Science, Indianapolis, IN) for 20 minutes at 37°C. Individual neurons were dispersed by trituration through a fire-polished glass Pasteur pipette in 3 ml of media containing DMEM, 5% horse serum, 10% fetal bovine serum, 1% penicillin/streptomycin, and 100 ng/ml Nerve Growth Factor (7S subunit; Invitrogen). The neurons were preplated in tissue culture-treated Petri dishes for 1 hour when used for electrophysiology (3 hours for calcium imaging), and then plated on poly-L-lysine (1 mg/ml)-coated glass coverslips. Dorsal root ganglion neurons were allowed to settle for 1–2 hours at 37°C before patching or imaging over the next 6 hours.
Electrophysiological experiments were performed using the whole-cell patch-clamp technique at room temperature. Modified Ringer's solution with low chloride and nominal calcium contained (in mM): 130 sodium hydroxide, 5 potassium chloride, 1 magnesium chloride, 10 sodium 4-(2-hydroxyethyl)-1-piperazineethanesulfonic acid, 10 2-(N-morpholino)ethanesulfonic acid, and 20 glucose (pH 7.4; 310 milli-osmolar). […] 2 mM calcium chloride was included in the external solution where noted. To activate TRPV1, the modified Ringer's solution was made at pH 5 (low pH solution) and the chloride concentration was kept to a minimum to prevent contamination of the TRPV1 currents with acid-activated chloride currents. For recordings from heterologously expressing cells, the internal pipette solution contained (in mM): 125 cesium-Methanesulfonate, 10 cesium (1.2-bis(o-aminophenoxy)ethane-N,N,N',N'-tetraacetic acid, 8 sodium chloride, 4 magnesium adenosine triphosphate, and 10 HEPES (pH 7.2; 290 mOSM; nominal free calcium concentrations). For TRPA1 and dorsal root ganglion recordings, the internal pipette solution contained (in mM): 110 cesium-Methanesulfonate, 0.5 cesium4BAPTA, 8 sodium chloride, 0.2 calcium chloride, 4 magnesium-ATP, 4 sodium-GTP, and 10 4-(2-hydroxyethyl)-1-piperazineethanesulfonic acid (pH 7.2; 290 mOSM; 100 nM free calcium internal). MaxChelator was used to calculate the free calcium concentration (http://www.stanford.edu/cpatton/maxc.html).
Recordings were obtained using an Axopatch 200B amplifier, Digidata 1322A analog-to-digital converter, and pClamp 8.01 software (Molecular Devices, Union City, CA). Data were low-pass filtered at 2 kHz and digitized at 5 kHz. Borosilicate glass pipettes (World Precision Instruments, Sarasota, FL) were typically 3 MΩ pipette resistance after fire polishing. Cell capacitance was measured for each cell, and access resistance compensated to ∼80%. Recordings were begun ∼5 minutes after initial rupture to ensure initial steady state conditions. Current-voltage (I-V) relations were obtained using a ramp protocol. Voltage ramps (400 ms) from −100 to +40 or +100 mV were applied every 1–2 seconds and the holding potential was either −70 mV or 0 mV (see Figure Legends). A 40 ms step was added at the beginning and end of the ramp (i.e. at −100 mV, +40 mV or +100 mV). Liquid junction potentials were not corrected.

## CC(C)=CCCC(C)=CC=O [citral, 3,7-dimethyl-2,6-octadienal]
1 µM capsaicin
  Block of TRPV1-like currents evoked by capsaicin: 94%
1 mM citral
  Effect on fast inward current (primarily voltage-gated sodium channels): partially blocked
1 mM citral, n = 8
  Increase of outward currents: 2.7±0.5 fold
5 minutes after washout, n = 8
  Capsaicin response recovered after citral washout: 3±1.5%
Capsaicin activation, n = 17
  Potentiation of TRPV1-like current prior to inhibition: 1.1±0.03 fold
Citral at pH 5
  Initial (constitutive) outward current inhibited: 79%
pH 5
  Block of TRPV1-like currents evoked by pH 5 solution: 100%
pH 5 activation, n = 20
  Potentiation of TRPV1-like current prior to inhibition: 1.5±0.1 fold
